Laboratory results as given in US20110162116A1, “Method For Growing Plants” (priority 2008, published 2011).

System: Cotton
Experiment: Total dark respiration and SHAM-sensitive AOX by phase shift fluorescence measurement, cotton leaf sections
Format: in vivo, Gossypium spp.
From the text: Ozone control. Ozone generators (model OP-35-3P, Grupo Interozone, Brazil) were coupled to ozone monitors (model 202, 2B Technologies, Inc. USA; dynamic range of 1.5 ppbv to 100 ppmv of ozone; precision 1.5 ppbv or 2% of the reading) using a ozone monitor—generator interface (Engineering dep. Crops Advance Brazil). […] This was used as the upper limit for phytotron number one. Phytotron number two was set at 30 ppbv average ozone. Phytotron number three was set at 60 ppbv average ozone. Ozone levels of phytotron number two and three were permanently measured at 10 second intervals and averaged per minute. Each ozone monitor fed averaged values over an analog output to an ozone monitor—ozone generator interface. Hysteresis was set at +/−5 ppbv. Ozone levels were monitored close to the inlet of the two internal circulation ventilators. The ozone generators were adapted to accept an external digital signal from the interface.
Respiration of plant material was tested as follows: Partial oxygen pressure drops due to oxygen consumption as result of dark respiration were measured using phase shift fluorescence measurement. For this, a NeoFox™ Phase Measurement System was used (Fluorometer Bench version using a QBIF600-VIS-NIR laboratory-grade bifurcated optical fiber with FOXY-R-8 cm overcoated fluorescence oxygen needle sensor, Ocean Optics Inc. USA).
Fluorescence phase shift was expressed as Tau in microseconds (μs) and has an inverse and linear relation with the partial oxygen pressure.
Salicylhydroxamic acid (SHAM) (99%, Sigma-Aldrich Brasil Ltda. São Paulo, Brazil) was used as an AOX inhibitor. The soluble sodium salicylhydroxamate salt was prepared by titrating SHAM with 0.1 M sodium hydroxide until neural pH. A stock solution ([…]) was prepared containing 300 ml/L ethanol from initial dissolving SHAM (same abbreviation is used for the salicylhydroxamate salt). From the stock solution a 20 mmol/L salicylhydroxamate final test solution was prepared by taking 12.3 ml stock solution and completing till 100 ml with a phosphate buffer solution (pH 7). The final SHAM test solution thus contained 3.7% residual ethanol. For proper control, the comparative test solution was also provided with 3.7 ml of ethanol per 100 ml of phosphate buffer solution (pH 7). To both solutions two drops of wetting agent (Silwet L-77 AG, GE Silicones Inc. USA) were added per 25 ml of test solution.
Plant material collected was always the first fully grown leaf counting from the apical point downwards or outwards (e.g. for monocotyls). […] Per test, four leafs from four different plants were sampled. Cotton leafs were cut in half along the mid nerve. Using a clipper, 16 leaf sections of equal surface area of 400.9 mm2 each were cut, one from each base half and one from each top half part giving 4 sections per leaf and 16 sections per test. The leaf sections were distributed equally over two sub samples, one with and one without salicylhydroxamate. Using a chirurgical blade, all sections were given 7 parallel cuts (through and through) at approximately 2.5 mm apart over almost the full length of the section to guarantee lateral infiltration of the test solutions and gas exchange.
Within 10 minutes of plant sampling the sections were cut, initial subsample weight was registered using a high precision laboratory scale and the subsamples were placed in their solutions with and without salicylhydroxamate for 60 minutes in the dark, to guarantee dark adaptation.
Each sample contained 4 leaves, 4 sections per leaf providing 16 sections, 8 per subsample. In 1 subsample of 8 sections AOX was inhibited, the other subsample served as control. Thereafter each subsample material was tissue dried and stacked using filter paper sections cut with the same clipper to separate individual leaf sections. Each subsample consisted of 9 filter sections and 8 leaf sections. […]

[1] = plants grown in 0 ppvb O3, transferred to 60 ppvb O3 and transferred back to 0 ppvb O3
[2] = plants grown in 0 ppvb O3 and transferred to 30 ppvb O3
[3] = plants grown in 0 ppvb O3 and transferred to 60 ppvb O3
[4] = plants grown in 60 ppvb O3 and transferred to 0 ppvb O3

## O=[O+][O-] [ozone]
cotton, after exposure to higher ozone levels than in ontogenic phase
  time for AOX respiration rate to fully return to base level when the oxidative stress is reduced: ≤ 3 days
Ontogenic phase in 0 ppbv, time in 60 ppbv ozone ambient, returned to 0 ppbv
  AOX respiration after return to the 0 ppbv ozone ambient (in words): returned fully to its initial level
[1]
  AOX component: 2.95 arb units
  TDR excl AOX dTau/t without SHAM: 8.87E−06 μs/s
  TDR incl AOX dTau/t with SHAM: 1.18E−05 μs/s
[2]
  AOX component: 3.26 arb units
  TDR excl AOX dTau/t without SHAM: 7.51E−06 μs/s
  TDR incl AOX dTau/t with SHAM: 1.08E−05 μs/s
[3]
  AOX component: 3.77 arb units
  TDR excl AOX dTau/t without SHAM: 5.75E−06 μs/s
  TDR incl AOX dTau/t with SHAM: 9.52E−06 μs/s
Plants grown in 30 ppvb O3
  AOX component: 2.97 arb units
  TDR excl AOX dTau/t without SHAM: 6.96E−06 μs/s
  TDR incl AOX dTau/t with SHAM: 9.93E−06 μs/s
Plants grown in 60 ppvb O3
  AOX component: 3.33 arb units
  TDR excl AOX dTau/t without SHAM: 6.03E−06 μs/s
  TDR incl AOX dTau/t with SHAM: 9.36E−06 μs/s
[4]
  AOX component: 3.97 arb units
  TDR excl AOX dTau/t without SHAM: 7.13E−06 μs/s
  TDR incl AOX dTau/t with SHAM: 1.11E−05 μs/s
Plants grown up in 60 ppbv ozone, placed in zero ozone ambient
  AOX respiration during stay in the zero ozone level ambient (in words): did not lower their AOX respiration
